Test results reported in patent US20260242419A1, “A CYCLIC PEPTIDE FOR TRAPPING INTERLEUKIN-1 BETA” (Merck Sharp & Dohme LLC, priority 2023, published 2026).
Read-outs that look alike come from different tables or passages of the source. Starred links: 1 amine or outer side, 2 acyl side, 3 side chain; linkers in the order of their positions; H or OH if unused. Non-standard residues stand in square brackets, D forms with d. Residues, ends and D or L forms follow the SMILES beside them. Phe(4-(cis-4-COOH-cHex)) = N[C@@H](Cc1ccc([C@H]2CC[C@@H](C(=O)O)CC2)cc1)C(=O)O; dPro(4R-(4-pyridylmethyl)) = O=C(O)[C@H]1C[C@@H](Cc2ccncc2)CN1; Ala(piperidin-4-yl) = O=C([C@H](CC1CCN([*:3])CC1)N[*:1])[*:2]; Trp(βS-Me,4-F) = C[C@@H](c1c[nH]c2cccc(F)c12)[C@H](N)C(=O)O; Bip(4'-COOH) = N[C@@H](Cc1ccc(-c2ccc(C(=O)O)cc2)cc1)C(=O)O; Ala(1-bicyclo(1.1.1)pentyl) = N[C@@H](CC12CC(C1)C2)C(=O)O; dPro(4R-Bzl(4-F)) = O=C(O)[C@H]1C[C@@H](Cc2ccc(F)cc2)CN1; X4 = O=C([C@H]1[C@@H](Cc2ccncc2)CCN1[*:1])[*:2]; Ala(pyrimidin-5-yl) = N[C@@H](Cc1cncnc1)C(=O)O; Phe(4-COOH) = N[C@@H](Cc1ccc(C(=O)O)cc1)C(=O)O; Bip = N[C@@H](Cc1ccc(-c2ccccc2)cc1)C(=O)O; Nva(5,5,5-F3) = N[C@@H](CCC(F)(F)F)C(=O)O; Pro(cis-4-F) = O=C(O)[C@@H]1C[C@H](F)CN1; cisHyp = O=C(O)[C@@H]1C[C@H](O)CN1; d(αMeD) = C[C@@](N)(CC(=O)O)C(=O)O; 4Pal = N[C@@H](Cc1ccncc1)C(=O)O; aThr = C[C@H](O)[C@H](N)C(=O)O; Orn = NCCC[C@H](N)C(=O)O; Dab = NCC[C@H](N)C(=O)O; Aib = CC(C)(N)C(=O)O

Target: T1, IL-1β (Homo sapiens, UniProt P01584)
T1 construct: purchased BioLegend 579404
T1 sequence (P01584 117-269): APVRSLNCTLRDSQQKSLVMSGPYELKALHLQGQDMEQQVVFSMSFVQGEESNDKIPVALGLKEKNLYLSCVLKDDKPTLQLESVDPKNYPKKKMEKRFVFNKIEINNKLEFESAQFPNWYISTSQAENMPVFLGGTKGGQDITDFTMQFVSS
Experiment: IL-6 assay in MRC5 cells: inhibition of IL-1β induced IL-6 secretion (AlphaLISA)
Format: cell-based
Details: inhibition of IL-1β induced IL-6 secretion in MRC5 cells, read-out: MRC5 IC50
Summary of the method: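 Compound was pre-incubated 1 h at ambient temperature with recombinant human IL-1β at 2λ EC80 before adding human lung fibroblast MRC5 cells (3000/well) in EMEM with 0.025% BSA. After overnight culture at 37 °C, 5% CO2, secreted IL-6 in conditioned medium was measured by AlphaLISA; IC50 from 4-parameter logistic fits.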

[1] = compound pre-incubated 1 hour with recombinant human IL-1β

SMILES	IC50 [1]	IC50
CO[C@H](C)[C@@H]1NC(=O)[C@@](C)(CC(=O)O)NC(=O)[C@H](Cc2c[nH]c3ccccc23)NC(=O)[C@H](CO)NC(=O)C(C)(C)NC(=O)[C@H]([C@@H](C)c2c[nH]c3cccc(F)c23)NC(=O)[C@@H]2C[C@H](F)CN2C(=O)CNC(=O)[C@H](Cc2ccc(C(=O)O)cc2)NC(=O)[C@H](Cc2ccncc2)NC(=O)[C@H](Cc2ccc(-c3ccc(C(=O)O)cc3)cc2)NC(=O)[C@H]2C[C@@H](Cc3ccncc3)CN2C(=O)CNC(=O)[C@H](CCN)NC(=O)[C@H](CCC(N)=O)NC1=O [Example 255] (cyclo([Bip(4'-COOH)][4Pal][Phe(4-COOH)]G[Pro(cis-4-F)][Trp(βS-Me,4-F)][Aib]SW[d(αMeD)]T(Me)Q[Dab]G[dPro(4R-(4-pyridylmethyl))]))	0.011 nM	–
C[C@@H](c1c[nH]c2cccc(F)c12)[C@@H]1NC(=O)[C@@H]2C[C@H](F)CN2C(=O)CNC(=O)[C@H](Cc2ccc(C(=O)O)cc2)NC(=O)[C@H](Cc2ccncc2)NC(=O)[C@H](Cc2ccc(-c3ccccc3)cc2)NC(=O)[C@H]2C[C@@H](Cc3ccncc3)CN2C(=O)CNC(=O)[C@H](CCN)NC(=O)[C@H](CCC(N)=O)NC(=O)[C@@H](CC(=O)O)NC(=O)C(C)(C)NC(=O)[C@H](Cc2c[nH]c3ccccc23)NC(=O)[C@H](CO)NC(=O)C(C)(C)NC1=O [Example 265] (cyclo([Bip][4Pal][Phe(4-COOH)]G[Pro(cis-4-F)][Trp(βS-Me,4-F)][Aib]SW[Aib][dD]Q[Dab]G[dPro(4R-(4-pyridylmethyl))]))	0.022 nM	–
C[C@H](O)[C@@H]1NC(=O)[C@@](C)(CC(=O)O)NC(=O)[C@H](Cc2c[nH]c3ccccc23)NC(=O)[C@H](CO)NC(=O)C(C)(C)NC(=O)[C@H]([C@@H](C)c2c[nH]c3cccc(F)c23)NC(=O)[C@@H]2C[C@H](F)CN2C(=O)CNC(=O)[C@H](Cc2ccc(C(=O)O)cc2)NC(=O)[C@H](CC23CC(C2)C3)NC(=O)[C@H](Cc2ccc([C@H]3CC[C@@H](C(=O)O)CC3)cc2)NC(=O)[C@H]2C[C@@H](Cc3ccncc3)CN2C(=O)CNC(=O)[C@H](CCN)NC(=O)[C@H](CCC(N)=O)NC1=O [Example 334] (cyclo([Phe(4-(cis-4-COOH-cHex))][Ala(1-bicyclo(1.1.1)pentyl)][Phe(4-COOH)]G[Pro(cis-4-F)][Trp(βS-Me,4-F)][Aib]SW[d(αMeD)][aThr]Q[Dab]G[dPro(4R-(4-pyridylmethyl))]))	–	0.022 nM
C[C@@H](c1c[nH]c2cccc(F)c12)[C@@H]1NC(=O)[C@@H]2C[C@H](F)CN2C(=O)CNC(=O)[C@H](Cc2ccc(C(=O)O)cc2)NC(=O)[C@H](Cc2ccncc2)NC(=O)[C@H](Cc2ccc(-c3ccc(C(=O)O)cc3)cc2)NC(=O)[C@H]2[C@@H](Cc3ccncc3)CCN2C(=O)CNC(=O)[C@H](CCN)NC(=O)[C@H](CCC(N)=O)NC(=O)[C@H](CCC(F)(F)F)NC(=O)[C@@](C)(CC(=O)O)NC(=O)[C@H](Cc2c[nH]c3ccccc23)NC(=O)[C@H](CO)NC(=O)C(C)(C)NC1=O [Example 232] (cyclo([Bip(4'-COOH)][4Pal][Phe(4-COOH)]G[Pro(cis-4-F)][Trp(βS-Me,4-F)][Aib]SW[d(αMeD)][Nva(5,5,5-F3)]Q[Dab]G[X4]))	0.022 nM	–
C[C@@H](c1c[nH]c2cccc(F)c12)[C@@H]1NC(=O)[C@@H]2C[C@H](O)CN2C(=O)CNC(=O)[C@H](Cc2ccc(C(=O)O)cc2)NC(=O)[C@H](Cc2ccncc2)NC(=O)[C@H](Cc2ccc(-c3ccc(C(=O)O)cc3)cc2)NC(=O)[C@H]2C[C@@H](Cc3ccncc3)CN2C(=O)CNC(=O)[C@H](CCN)NC(=O)[C@H](CCC(N)=O)NC(=O)[C@H](Cc2cncnc2)NC(=O)C(C)(C)NC(=O)[C@H](Cc2c[nH]c3ccccc23)NC(=O)[C@H](CO)NC(=O)C(C)(C)NC1=O [Example 194] (cyclo([Bip(4'-COOH)][4Pal][Phe(4-COOH)]G[cisHyp][Trp(βS-Me,4-F)][Aib]SW[Aib][Ala(pyrimidin-5-yl)]Q[Dab]G[dPro(4R-(4-pyridylmethyl))]))	–	0.014 nM
C[C@@H](c1c[nH]c2cccc(F)c12)[C@@H]1NC(=O)[C@@H]2C[C@H](F)CN2C(=O)CNC(=O)[C@H](Cc2ccc(C(=O)O)cc2)NC(=O)[C@H](Cc2ccncc2)NC(=O)[C@H](Cc2ccc(-c3ccc(C(=O)O)cc3)cc2)NC(=O)[C@H]2C[C@@H](Cc3ccncc3)CN2C(=O)CNC(=O)[C@H](CCCN)NC(=O)[C@H](CCC(N)=O)NC(=O)[C@H](Cc2cncnc2)NC(=O)C(C)(C)NC(=O)[C@H](Cc2c[nH]c3ccccc23)NC(=O)[C@H](CO)NC(=O)C(C)(C)NC1=O [Example 108] (cyclo([Bip(4'-COOH)][4Pal][Phe(4-COOH)]G[Pro(cis-4-F)][Trp(βS-Me,4-F)][Aib]SW[Aib][Ala(pyrimidin-5-yl)]Q[Orn]G[dPro(4R-(4-pyridylmethyl))]))	–	0.024 nM
C[C@@H](c1c[nH]c2cccc(F)c12)[C@@H]1NC(=O)[C@@H]2C[C@H](F)CN2C(=O)CNC(=O)[C@H](Cc2ccc(C(=O)O)cc2)NC(=O)[C@H](Cc2ccncc2)NC(=O)[C@H](Cc2ccc(-c3ccc(C(=O)O)cc3)cc2)NC(=O)[C@H]2C[C@@H](Cc3ccc(F)cc3)CN2C(=O)CNC(=O)[C@H](CO)NC(=O)[C@H](CCC(N)=O)NC(=O)[C@H](CC2CCNCC2)NC(=O)C(C)(C)NC(=O)[C@H](Cc2c[nH]c3ccccc23)NC(=O)[C@H](CCC(=O)O)NC(=O)C(C)(C)NC1=O [Example 121] (cyclo([Bip(4'-COOH)][4Pal][Phe(4-COOH)]G[Pro(cis-4-F)][Trp(βS-Me,4-F)][Aib]EW[Aib][Ala(piperidin-4-yl)]QSG[dPro(4R-Bzl(4-F))]))	–	0.029 nM
